The source of these data is patent US20130131029A1, “ANTISOLVENT SOLIDIFICATION PROCESS” (MSD Oss B.V., priority 2005, published 2013).

A short description of series [1]: Crystal size distribution (CSD) by laser diffraction (Mastersizer 2000, Fraunhofer model). The format is physicochemical. An excerpt:
The solid, preferably crystalline, particles obtainable by a process as described above advantageously have a high purity and, furthermore, a narrow particle size range, such as were not obtainable by prior art processes. The span, defined as (d90-d10)/d50, wherein d50, d10, and d90 can be understood to mean that 50%, 10%, and 90%, respectively, of the particles having a particle size smaller than or equal to the indicated value as determined by conventional laser diffraction technique, can even be below 1.4, which is exceptional for a solidification process such as a crystallisation process. In general, for the process according to the present invention the span preferably is below 3. More preferably, the span is below 2.5, and most preferably below 2.
The following procedure was applied for the production of sodium chloride crystals using the antisolvent crystallisation process according to the present invention. All experiments were performed at ambient conditions. The resulting crystals were analysed by SEM (Scanning Electron Microscopy) and CSD (Crystal Size Distribution) measurements by means of laser diffraction using a Mastersizer 2000 apparatus of Malvern Instruments with a Fraunhofer model for data analysis.
The following procedure was applied for the production of 3-ketodesogestrel using the antisolvent crystallisation of the present invention. All experiments were performed at ambient conditions. The resulting crystals were analysed using CSD measurements that were measured via conventional laser diffraction technique.
A 3-ketodesogestrel solution was prepared of 97 g 3-ketodesogestrel in 5 l of ethanol. Water was used as antisolvent. For dosing, a Microdyn® type SE020TP1N membrane with an average pore size of 1 μm was used. The 3-ketodesogestrel solution was dosed from the outside of the membrane to the antisolvent on the inside of the membrane. The speed of the antisolvent was set to 45 l/hr. The speed of the 3-ketodesogestrel flow was set to 0.41 l/hr. Again, a gear pump was used to control the velocities. The crystals thus obtained were collected using filtration, washed with 100% ethanol, and subsequently dried in an oven. […] The span was determined to be 1.7. Herein d50, d10; and d90 can be understood to mean that 50%, 10%, and 90%, respectively, of the particles have a particle size smaller than or equal to the indicated value.
The following procedure was applied for the production of progesteron. All experiments were performed at ambient conditions. The resulting crystals were analysed by CSD measurements by means of laser diffraction using a Mastersizer 2000 apparatus of Malvern Instruments with a Fraunhofer model for data analysis.

Assay in series [2]: as above
The format is physicochemical. This is another data set of the same source.

Where [3] appears, read: Example 5, 34 mg tibolone in 1 kg ethanol, 65 l/hr, antisolvent 90 wt % water/10 wt % ethanol, 151/hr, SPG membrane 1.1 μm.
The mark [4] stands for this setting: Entry 2, antisolvent flow 45 l/h, 3-ketodesogestrel flow 0.4 l/h, Microdyn membrane pore size 1 μm.
Setting [5] is: Example 2, 97 g in 5 l ethanol, flow 0.41 l/hr, water antisolvent 45 l/hr, Microdyn membrane 1 μm.
Setting [6] is: Entry 1, antisolvent flow 45 l/h, 3-ketodesogestrel flow 0.7 l/h, Microdyn membrane pore size 1 μm.
Where [7] appears, read: Entry 3, antisolvent flow 45 l/h, 3-ketodesogestrel flow 6.2 l/h, Microdyn membrane pore size 1 μm.
[8] abbreviates: Entry 4, antisolvent flow 90 l/h, 3-ketodesogestrel flow 0.7 l/h, Microdyn membrane pore size 1 μm.
Where [9] appears, read: Entry 5, antisolvent flow 90 l/h, 3-ketodesogestrel flow 5.0 l/h, Microdyn membrane pore size 1 μm.
Where [10] appears, read: Entry 6, antisolvent flow 45 l/h, 3-ketodesogestrel flow 10 l/h, Microdyn membrane pore size 1 μm.
Setting [11] is: Entry 7, antisolvent flow 45 l/h, 3-ketodesogestrel flow 42 l/h, Microdyn membrane pore size 1 μm.
[12] abbreviates: Entry 8, antisolvent flow 45 l/h, 3-ketodesogestrel flow 20 l/h, Microdyn membrane pore size 1 μm.
Where [13] appears, read: Entry 1, antisolvent 100 wt % water, 0 wt % ethanol, 45 l/h, progesteron solution 50 g per litre ethanol, 12 l/h, Microdyn membrane 1 μm.
Setting [14] is: Entry 2, antisolvent 85 wt % water, 15 wt % ethanol, 45 l/h, progesteron solution 50 g per litre ethanol, 12 l/h, Microdyn membrane 1 μm.
The mark [15] stands for this setting: Entry 3, antisolvent 70 wt % water, 30 wt % ethanol, 45 l/h, progesteron solution 50 g per litre ethanol, 12 l/h, Microdyn membrane 1 μm.
Where [16] appears, read: Example 1, 25 wt % NaCl solution 60 l/hr into ethanol antisolvent 50 l/hr, SPG membrane pore-size 1.1 μm.

Regarding `C#CC1(O)CCC2C3C(CCC21C)C1=C(CC(=O)CC1)C[C@H]3C` (stereo partly shown) [tibolone, (7alfa, 17alfa)-17-hydroxy-7-methyl-19-nor-pregn-5(10)-en-20-yn-3-one], in series [1] (setting [3]), the d90 was found to be 51.3 μm. Further, in series [2] (setting [3]), the d10 was determined as 3.8 μm and the d50 is given as 18.2 μm.

On to `C#C[C@]1(O)CC[C@H]2[C@@H]3CCC4=CC(=O)CC[C@@H]4[C@H]3C(=C)C[C@@]21CC` [3-ketodesogestrel, (17alfa)-17-hydroxy-13-ethyl-11-methylene-18,19-dinorpregn-4-en-20-yn-3-one], for which the d50 in series [1] (setting [4]) was 10 µm; in series [1] (setting [5]), 10 μm; in series [2] (setting [6]) it was 11 µm; in series [2] (setting [7]) it was 16 µm; in series [2] (setting [8]) it was 10 µm; in series [2] (setting [9]), 7 µm. Also, the values for the d50 in series [2] (setting [10]), in series [2] (setting [11]) and in series [2] (setting [12]) were 8 µm, 42 µm and 9 µm, respectively. Moreover, the Span in series [1] (setting [5]) is 1.7; in series [2] (setting [6]), 1.6; in series [2] (setting [4]), 1.7; in series [2] (setting [7]), 2.5; in series [2] (setting [8]), 1.9; in series [2] (setting [9]), 2.9. Moreover, the Span turned out to be 2.8 in series [2] (setting [10]), 1.9 in series [2] (setting [11]) and 3 in series [2] (setting [12]). In addition, the d10 was 3 μm in series [1] (setting [5]); 3 µm in series [2] (setting [6]); 3 µm in series [2] (setting [4]); 5 µm in series [2] (setting [7]); 4 µm in series [2] (setting [8]); 2 µm in series [2] (setting [9]). In addition, the d10 in series [2] (setting [10]) amounted to 2 µm; in series [2] (setting [11]) it was 12 µm; in series [2] (setting [12]), 2 µm. For the same molecule, the d90 was 21 µm in series [2] (setting [6]); 20 µm in series [2] (setting [4]); 45 µm in series [2] (setting [7]); 23 µm in series [2] (setting [8]); 22 µm in series [2] (setting [9]); 24 µm in series [2] (setting [10]). The d90 amounted to 90 µm in series [2] (setting [11]), 29 µm in series [2] (setting [12]) and 20 μm in series [2] (setting [5]).

As to `CC(=O)[C@H]1CC[C@H]2[C@@H]3CCC4=CC(=O)CC[C@]4(C)[C@H]3CC[C@]12C` [progesteron, pregn-4-ene-3,20-dione], the “d90” value in series [1] (setting [13]) turned out to be 16; in series [1] (setting [14]) it was 25; in series [2] (setting [15]), 43. Further, the “d10” value in series [1] (setting [14]) came to 4; in series [2] (setting [13]), 2; in series [2] (setting [15]) it was 7. The Span amounted to 1.7 in series [1] (setting [15]), 2 in series [2] (setting [13]) and 1.8 in series [2] (setting [14]). In series [1] (all antisolvent compositions of Table 2), the “span, in words” value was “surprisingly small span”. The “d50” value came to 7 in series [2] (setting [13]), 12 in series [2] (setting [14]) and 21 in series [2] (setting [15]).

`[Cl-].[Na+]` [sodium chloride]: in series [1] (setting [16]), the “average crystal size d50” value is reported as 40 μm. The Span in series [1] (Example 1 additional experiment, stirring rod 630 rpm inside membrane, salt solution 40 l/hr, ethanol 50 l/hr) came out at 1.2; in series [2] (setting [16]), 1.5.
